Assays:
Format in all cases: in vivo
[1] = system: Tetranychus urticae (two-spotted spider mite); assay: Tetranychus urticae bean leaf disc spray test; conditions: foliar, 192 h, bean leaf discs sprayed at 200 ppm, mixed ages, egg, larval and adult mortality 8 days later
Excerpt: Bean leaf discs on agar in 24-well microtiter plates were sprayed with test solutions at an application rate of 200 ppm. After drying, the leaf discs are infested with mite populations of mixed ages. 8 days later, discs are checked for egg mortality, larval mortality, and adult mortality. […]

[2] = system: Spodoptera littoralis (Egyptian cotton leafworm); assay: Spodoptera littoralis cotton leaf disc spray test; conditions: foliar, 72 h, cotton leaf discs sprayed at 200 ppm, 5 L1 larvae, mortality, feeding behavior, growth regulation 3 days after treatment
Excerpt: Cotton leaf discs were placed on agar in a 24-well microtiter plate and sprayed with test solutions at an application rate of 200 ppm. After drying, the leaf discs were infested with 5 L1 larvae. The samples were checked for mortality, feeding behavior, and growth regulation 3 days after treatment (DAT).

[3] = system: Heliothis virescens (tobacco budworm); assay: Heliothis virescens egg test on artificial diet; conditions: 96 h, 200 ppm (concentration in well 18 ppm), eggs 0-24 h old, 4 days, egg mortality, larval mortality, growth regulation
Protocol: Eggs (0-24 h old) were placed in 24-well microtiter plate on artificial diet and treated with test solutions at an application rate of 200 ppm (concentration in well 18 ppm) by pipetting. After an incubation period of 4 days, samples were checked for egg mortality, larval mortality, and growth regulation.

[4] = system: Plutella xylostella (diamond back moth); assay: Plutella xylostella L2 larvae test on artificial diet; conditions: 144 h, 200 ppm (concentration in well 18 ppm), 6 days, larval mortality and growth regulation
Protocol: 24-well microtiter plate (MTP) with artificial diet was treated with test solutions at an application rate of 200 ppm (concentration in well 18 ppm) by pipetting. After drying, the MTPs were infested with L2 larvae (7-12 per well). After an incubation period of 6 days, samples were checked for larval mortality and growth regulation.

[5] = system: Diabrotica balteata (corn root worm); assay: Diabrotica balteata L2 larvae test on artificial diet; conditions: 120 h, 200 ppm (concentration in well 18 ppm), 5 days, larval mortality and growth regulation
Protocol: A 24-well microtiter plate (MTP) with artificial diet was treated with test solutions at an application rate of 200 ppm (concentration in well 18 ppm) by pipetting. After drying, the MTPs were infested with L2 larvae (6-10 per well). After an incubation period of 5 days, samples were checked for larval mortality and growth regulation.
A 24-well microtiter plate (MTP) with artificial diet was treated with test solutions at an application rate of 12.5 ppm (concentration in well 18 ppm) by pipetting. After drying, the MTP's were infested with L2 larvae (6-10 per well). After an incubation period of 5 days, samples were checked for larval mortality and growth regulation.

Measured: pest or weed control at 200 ppm

CC(=O)NCCNC(=O)c1ccc(C2=CC(c3cc(Cl)cc(Cl)c3)(C(F)(F)F)OC2)cc1C (centres unmarked) [Compound A45]
≥ 80%: [1]

Cc1cc(C2=CC(c3cc(Cl)cc(Cl)c3)(C(F)(F)F)OC2)ccc1C(=O)NC(C)c1ccccc1 (centres unmarked) [Compound A38]
not listed: [5]
≥ 80%: all other assays above

CSc1ccccc1NC(=O)c1ccc(C2=CC(c3cc(Cl)cc(Cl)c3)(C(F)(F)F)OC2)cc1C (centres unmarked) [Compound A63]
≥ 80%: [4] | [5] | [1]

Cc1nc(C2=CC(c3cc(Cl)cc(Cl)c3)(C(F)(F)F)OC2)ccc1C(=O)NCc1ccccc1 (centres unmarked) [Compound C9]
not listed: [1]
≥ 80%: all other assays above

Cc1cc(C2=CC(c3cc(Cl)cc(Cl)c3)(C(F)(F)F)OC2)ccc1C(=O)NCc1ccco1 (centres unmarked) [Compound A55]
not listed: [1]
≥ 80%: all other assays above

Cc1nc(C2=CC(c3cc(Cl)cc(Cl)c3)(C(F)(F)F)OC2)ccc1C(=O)NCC(F)(F)F (centres unmarked) [Compound C1]
not listed: [1]
≥ 80%: all other assays above

CCC(CO)NC(=O)c1ccc(C2=CC(c3cc(Cl)cc(Cl)c3)(C(F)(F)F)OC2)cc1C (centres unmarked) [Compound A28]
≥ 80%: [2] | [1]

Cc1cc(C2=CC(c3cc(Cl)cc(Cl)c3)(C(F)(F)F)OC2)ccc1C(=O)Nc1ccc2ncsc2c1 (centres unmarked) [Compound A64]
not listed: [1]
≥ 80%: all other assays above

Cc1cc(C2=CC(c3cc(Cl)cc(Cl)c3)(C(F)(F)F)OC2=O)ccc1C(=O)NC1(C)CSC1 (centres unmarked) [Compound E16]
≥ 80%: [1]

COCC(C)NC(=O)c1ccc(C2=CC(c3cc(Cl)cc(Cl)c3)(C(F)(F)F)OC2)cc1C (centres unmarked) [Compound A6]
not listed: [1]
≥ 80%: all other assays above

Cc1cc(C2=CC(c3cc(Cl)cc(Cl)c3)(C(F)(F)F)OC2)ccc1C(=O)NC1(C)CSC1 (centres unmarked) [Compound A12]
not listed: [5]
≥ 80%: all other assays above

COc1ccc(NC(=O)c2ccc(C3=CC(c4cc(Cl)cc(Cl)c4)(C(F)(F)F)OC3)cc2C)c(OC)c1 (centres unmarked) [Compound A58]
not listed: [2]
≥ 80%: all other assays above

O=C(NC1CS(=O)(=O)C1)c1ccc(C2=CC(c3cc(Cl)cc(Cl)c3)(C(F)(F)F)OC2)nc1Cl (centres unmarked) [Compound F2, 2-Chloro-6-[5-(3,5-dichloro-phenyl)-5-trifluoromethyl-2,5-dihydro-furan-3-yl]-N-(1,1-dioxo-1lambda*6*-thietan-3-yl)-nicotinamide]
not listed: [5]
≥ 80%: all other assays above

N#Cc1cc(C2=CC(c3cc(Cl)cc(Cl)c3)(C(F)(F)F)OC2)ccc1-n1cncn1 (centres unmarked) [Compound G1, 5-[5-(3,5-Dichloro-phenyl)-5-trifluoromethyl-2,5-dihydro-furan-3-yl]-2-[1,2,4]triazol-1-yl-benzonitrile]
not listed: [1]
≥ 80%: all other assays above

Cc1cc(C2=CC(c3cc(Cl)cc(Cl)c3)(C(F)(F)F)OC2)ccc1C(=O)NC1C[S+]([O-])C1 (centres unmarked) [Compound A13]
≥ 80%: [2] | [3] | [1]

O=C(NCc1ccccc1)c1ccc(C2=CC(c3cc(Cl)cc(Cl)c3)(C(F)(F)F)OC2)nc1 (centres unmarked) [Compound B9]
≥ 80%: [4] | [1]

Cc1cc(C2=CC(c3cc(Cl)cc(Cl)c3)(C(F)(F)F)OC2)ccc1C(=O)NCc1cccc(Cl)c1 (centres unmarked) [Compound A43]
≥ 80%: [2] | [5] | [1]

CCCCNC(=O)c1ccc(C2=CC(c3cc(Cl)cc(Cl)c3)(C(F)(F)F)OC2)cc1C (centres unmarked) [Compound A5]
not listed: [1]
≥ 80%: all other assays above

Cc1cc(C2=CC(c3cc(Cl)cc(Cl)c3)(C(F)(F)F)OC2)ccc1C(=O)Nc1ccc2[nH]ncc2c1 (centres unmarked) [Compound A60]
not listed: [1]
≥ 80%: all other assays above

Cc1cc(C2=CC(c3cc(Cl)cc(Cl)c3)(C(F)(F)F)OC2)ccc1C(=O)NC1CCSC1=O (centres unmarked) [Compound A21]
not listed: [1]
≥ 80%: all other assays above

Cc1cc(C2=CC(c3cc(Cl)cc(Cl)c3)(C(F)(F)F)OC2)ccc1C(=O)NC1CCC1 (centres unmarked) [Compound A14]
≥ 80%: [2] | [3] | [1]

Cc1cc(C2=CC(c3cc(Cl)cc(Cl)c3)(C(F)(F)F)OC2)ccc1C(=O)Nc1ccccc1Cl (centres unmarked) [Compound A56]
not listed: [2]
≥ 80%: all other assays above

COc1ccc(CNC(=O)c2ccc(C3=CC(c4cc(Cl)cc(Cl)c4)(C(F)(F)F)OC3)nc2C)cc1 (centres unmarked) [Compound C12]
not listed: [1]
≥ 80%: all other assays above

Cc1cc(C2=CC(c3cc(Cl)cc(Cl)c3)(C(F)(F)F)OC2)ccc1C(=O)NC1CC(C)(C)N(C)C(C)(C)C1 (centres unmarked) [Compound A40]
≥ 80%: [1]

Cc1nc(C2=CC(c3cc(Cl)cc(Cl)c3)(C(F)(F)F)OC2)ccc1C(=O)NC(C)c1ccccc1 (centres unmarked) [Compound C11]
not listed: [1]
≥ 80%: all other assays above

Cc1cc(C2=CC(c3cc(Cl)cc(Cl)c3)(C(F)(F)F)OC2)ccc1C(=O)NCc1ccc(-n2cccn2)cc1 (centres unmarked) [Compound A46]
not listed: [2]
≥ 80%: all other assays above

Cc1cc(C2=CC(c3cc(Cl)cc(Cl)c3)(C(F)(F)F)OC2)ccc1C(=O)NCc1nc2ccccc2[nH]1 (centres unmarked) [Compound A18]
not listed: [2]
≥ 80%: all other assays above

Cc1nc(C2=CC(c3cc(Cl)cc(Cl)c3)(C(F)(F)F)OC2)ccc1C(=O)NCc1ccccc1F (centres unmarked) [Compound C10]
not listed: [1]
≥ 80%: all other assays above
